The values below come from paper PMC8041284, “Tunable Methacrylamides for Covalent Ligand Directed Release Chemistry” (Journal of the American Chemical Society, 2021).

Read-outs that look alike come from different tables or passages of the source. *1 amine or outer side, *2 acyl side, *3 side chain or, on linkers, in order; H or OH if unused. Where a SMILES comes first, the peptide text is derived from it. Bridges are numbered along the chain shown (N, C = ends). [ ]: non-standard residue; d: D form. The star is where a group is joined. Orn(4R-OH,5R-OH) = O=C([C@H](C[C@@H](O)[C@@H](O)N[*:3])N[*:1])[*:2]; Tetradecanoyl(10R,12S-Me2) = CC[C@H](C)C[C@H](C)CCCCCCCCC(=O)*; hTyr(3S-OH,4S-OH) = N[C@H](C(=O)O)[C@H](O)[C@@H](O)c1ccc(O)cc1; Gln(3R-OH) = NC(=O)C[C@@H](O)[C@H](N)C(=O)O; Pro(3S-OH) = O=C(O)[C@H]1NCC[C@@H]1O; Hyp = O=C(O)[C@@H]1C[C@@H](O)CN1

In general, inhibition refers to the change of the read-out against control, counted positive when it falls.

The target of the test is BTK (Homo sapiens, UniProt Q06187). Description: biochemical.
Setting [1] is: read-out: BTK inhibition (%), 0.75 uM BTK, […] probe 3l, 15 min preincubation.

Sequence of BTK (Q06187 402-655 limits assumed): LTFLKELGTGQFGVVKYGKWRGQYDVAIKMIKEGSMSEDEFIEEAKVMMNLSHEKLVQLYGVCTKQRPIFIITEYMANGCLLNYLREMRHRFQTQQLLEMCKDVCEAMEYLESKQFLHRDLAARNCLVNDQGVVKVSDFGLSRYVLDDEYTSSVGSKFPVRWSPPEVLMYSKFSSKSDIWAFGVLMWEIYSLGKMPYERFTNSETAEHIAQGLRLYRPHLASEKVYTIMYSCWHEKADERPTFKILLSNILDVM

For the molecule `C[C@@]12C[C@@H](c3ccoc3)OC(=O)[C@@H]1CC[C@]1(C)[C@H]2[C@@H]2C=C[C@@]1(O)C(=O)O2` [PCM-0216442], the inhibition at 10 µM (read-out: BTK inhibition (%)) came to 0%.
Turning to `COc1cc2c(cc1O)C[C@H]1c3cc(O)c(OC)cc3CC[N+]1(C)C2` (stereo partly drawn) [PCM-0216444], under setting [1], the inhibition at 10 µM was determined as 2.3%.
Regarding `COc1cc2c(cc1O)C[C@H]1c3cc(O)c(OC)cc3CC[N@@+]1(C)C2` [PCM-0216444], the inhibition at 10 µM under setting [1] is -1.5%.
On the same count and under the same terms, with `Cc1cc(=O)c2c(O)c3c(cc2o1)OC(C)(C)[C@@H](O[C@@H]1O[C@H](CO)[C@@H](O)[C@H](O)[C@H]1O)C3` [PCM-0216445] the figure was -30.1%; with `C[C@@H]1O[C@@H](O[C@H]2[C@H](O[C@H]3CC[C@@]4(C)[C@@H](CC[C@]5(C)[C@@H]4CC=C4[C@@H]6CC(C)(C)CC[C@]6(C(=O)O[C@@H]6O[C@H](CO[C@@H]7O[C@H](CO)[C@@H](O)[C@H](O)[C@H]7O)[C@@H](O)[C@H](O)[C@H]6O)CC[C@]45C)[C@]3(C)CO)OC[C@H](O)[C@@H]2O)[C@H](O)[C@H](O[C@@H]2O[C@H](CO)[C@@H](O)[C@H](O)[C@H]2O)[C@H]1O` [PCM-0216447], -21.6%.
As for `C=C1[C@H](OC(=O)/C=C(\C)CC)C[C@@H](C(C)C)[C@@H]2[C@@H]([C@@H](C)OC(C)=O)C(=O)C[C@@H]12` [PCM-0216448], the inhibition at 10 µM under setting [1] was -9.3%.
Consider `CO[C@H]1C[C@H](O[C@H]2CC[C@]3(C)[C@H]4CC[C@]5(C)[C@@H](C6=CC(=O)OC6)CC[C@]5(O)[C@@H]4CC[C@]3(O)C2)O[C@H](C)[C@H]1O[C@@H]1O[C@H](CO)[C@@H](O)[C@H](O)[C@H]1O` [PCM-0216449], for which the inhibition at 10 µM (read-out: BTK inhibition (%)) was determined as 11.6%.
As for `COc1ccc2c(c1OC)CC1c3c(cc4c(c3-2)OCO4)CCN1C` (stereo not drawn) [PCM-0216450], the inhibition at 10 µM under setting [1] is 0.8%.
The same measure, in the same setting: in the case of `C[C@@H]1CC[C@@]2(OC1)O[C@H]1C[C@H]3[C@@H]4CC=C5C[C@@H](O)C[C@@H](O)[C@]5(C)[C@H]4CC[C@]3(C)[C@H]1[C@@H]2C` [PCM-0216451] it was -20.8%; in that of `COc1cc2c[n+](C)c3c4cc5c(cc4ccc3c2cc1OC)OCO5` [PCM-0216452], 27.8%; in that of `O=c1cc(-c2ccccc2)oc2cc(O[C@@H]3O[C@H](CO[C@@H]4O[C@H](CO)[C@@H](O)[C@H](O)[C@H]4O)[C@@H](O)[C@H](O)[C@H]3O)c(O)c(O)c12` [PCM-0216453], 30.9%.
On the same count and under the same terms, in the case of `O=c1cc(-c2ccc(O)cc2)oc2c([C@@H]3O[C@H](CO)[C@@H](O)[C@H](O)[C@H]3O)c(O)cc(O)c12` [PCM-0216454] it was 26.3%; in that of `COc1cc2oc(=O)ccc2c(OC)c1C[C@@H](O)C(C)(C)O` [PCM-0216455], -13.1%; in that of `O=C[C@H](O)[C@@H](O)[C@H](O[C@H]1O[C@H](CO)[C@@H](O[C@H]2O[C@H](CO)[C@@H](O[C@H]3O[C@H](CO)[C@@H](O)[C@H](O)[C@H]3O)[C@H](O)[C@H]2O)[C@H](O)[C@H]1O)[C@H](O)CO` [PCM-0216456], 0.8%.
On the same count and under the same terms, with `COc1c(O)c(C)cc2c1C(=O)c1c(O)cccc1C2=O` [PCM-0216457] the figure was 64.1%.
Take `C[C@@H]1O[C@@H](O[C@H]2[C@H](O[C@H]3C[C@]4(C)[C@H](C[C@@H](O)[C@@H]5[C@@H]([C@]6(C)CC[C@H](C(C)(C)O)O6)CC[C@]54C)[C@@]4(C)CC[C@H](O)C(C)(C)[C@H]34)O[C@H](CO)[C@@H](O)[C@@H]2O)[C@H](O)[C@H](O)[C@H]1O` [PCM-0216458]: under setting [1], the inhibition at 10 µM was determined as 1.5%.
With `CC[C@H](C)C[C@H](C)CCCCCCCCC(=O)N[C@H]1C[C@@H](O)[C@@H](O)NC(=O)[C@@H]2[C@@H](O)CCN2C(=O)[C@H]([C@H](O)CC(N)=O)NC(=O)[C@H]([C@H](O)[C@@H](O)c2ccc(O)cc2)NC(=O)[C@@H]2C[C@@H](O)CN2C(=O)[C@H]([C@@H](C)O)NC1=O` [PCM-0216459] ({Tetradecanoyl(10R,12S-Me2)}-[Orn(4R-OH,5R-OH)]T[Hyp][hTyr(3S-OH,4S-OH)][Gln(3R-OH)][Pro(3S-OH)]; lactam 1-C), under setting [1], the inhibition at 10 µM is -42.5%.
For `CC(C)=CC(O)C/C(C)=C/COc1c2ccoc2cc2oc(=O)ccc12` (stereo not drawn) [PCM-0216460], the inhibition at 10 µM under setting [1] was -45.6%.
Consider `COc1cc(O)c2c(=O)cc(-c3ccc(O)c(O)c3)oc2c1` [PCM-0216461], for which, under setting [1], the inhibition at 10 µM came out at 61%.
Regarding `C[N+]12CCc3cc4c(cc3C1(O)Cc1ccc3c(c1C2)OCO3)OCO4` (stereo not drawn) [PCM-0216462], the inhibition at 10 µM under setting [1] is -18.5%.
Same read-out and setting: in the case of `CC(C)=CCC[C@](C)(O[C@@H]1O[C@H](CO[C@@H]2O[C@H](CO)[C@@H](O)[C@H](O)[C@H]2O)[C@@H](O)[C@H](O)[C@H]1O)[C@H]1CC[C@]2(C)[C@@H]1[C@H](O)C[C@@H]1[C@@]3(C)CC[C@H](O[C@@H]4O[C@H](CO)[C@@H](O)[C@H](O)[C@H]4O)C(C)(C)[C@@H]3CC[C@]12C` [PCM-0216463] it was 4.6%.
On the same count and under the same terms, with `CC(C)=CCC[C@](C)(O[C@@H]1O[C@H](CO[C@@H]2OC[C@@H](O)[C@H](O)[C@H]2O)[C@@H](O)[C@H](O)[C@H]1O)[C@H]1CC[C@]2(C)[C@@H]1[C@H](O)C[C@@H]1[C@@]3(C)CC[C@H](O[C@@H]4O[C@H](CO)[C@@H](O)[C@H](O)[C@H]4O[C@@H]4O[C@H](CO)[C@@H](O)[C@H](O)[C@H]4O)C(C)(C)[C@@H]3CC[C@]12C` [PCM-0216464] the figure was 4.6%.
Consider `CCCCCCCCCCCCCC(=O)OCC(COC(=O)CCCCCCCCCCCCC)OC(=O)CCCCCCCCCCCCC` [PCM-0216465], for which the inhibition at 10 µM under setting [1] was -18.7%.
Turning to `C=C(CCC=C(C)C)[C@H]1CC[C@]2(C)[C@@H]1[C@H](O)C[C@@H]1[C@@]3(C)CC[C@H](O[C@@H]4O[C@H](CO)[C@@H](O)[C@H](O)[C@H]4O[C@@H]4O[C@H](CO)[C@@H](O)[C@H](O)[C@H]4O)C(C)(C)[C@@H]3CC[C@]12C` [PCM-0216466], under setting [1], the inhibition at 10 µM stood at 6.2%.
As to `C[C@@H]1O[C@@H](OC[C@H]2O[C@@H](Oc3cc(O)c4c(c3)O[C@H](c3ccc(O)c(O)c3)CC4=O)[C@H](O)[C@@H](O)[C@@H]2O)[C@H](O)[C@H](O)[C@H]1O` [PCM-0216467], under setting [1], the inhibition at 10 µM was 10%.
Same read-out and setting: with `Nc1nc(N)nc(N)n1` [PCM-0216468] the figure was 13.9%; with `CC(C)=C[C@H]1C[C@](C)(O)[C@@H]2[C@H]3CC[C@@H]4[C@@]5(C)CC[C@H](O[C@@H]6OC[C@H](O)[C@H](O[C@@H]7O[C@H](CO[C@@H]8O[C@H](CO)[C@@H](O)[C@H](O)[C@H]8O)[C@@H](O)[C@H](O)[C@H]7O[C@@H]7OC[C@@H](O)[C@H](O)[C@H]7O)[C@H]6O[C@@H]6O[C@@H](C)[C@H](O)[C@@H](O)[C@H]6O)C(C)(C)[C@@H]5CC[C@@]4(C)[C@@]34CO[C@@]2(C4)O1` [PCM-0216469], 10%.
Same read-out and setting: in the case of `CC(C)=C[C@H]1C[C@](C)(O)[C@@H]2[C@H]3CC[C@@H]4[C@@]5(C)CC[C@H](O[C@@H]6OC[C@H](O)[C@H](O[C@@H]7O[C@H](CO)[C@@H](O)[C@H](O)[C@H]7O[C@@H]7OC[C@@H](O)[C@H](O)[C@H]7O)[C@H]6O[C@@H]6O[C@@H](C)[C@H](O)[C@@H](O)[C@H]6O)C(C)(C)[C@@H]5CC[C@@]4(C)[C@@]34CO[C@@]2(C4)O1` [PCM-0216470] it was 10%; in that of `COc1cc([C@H]2OC[C@H]3[C@@H]2CO[C@@H]3c2ccc(O[C@@H]3O[C@H](CO)[C@@H](O)[C@H](O)[C@H]3O)c(OC)c2)ccc1O[C@@H]1O[C@H](CO)[C@@H](O)[C@H](O)[C@H]1O` [PCM-0216471], -6.9%.
The same measure, in the same setting: with `COC(=O)[C@@]1(C)CC[C@]2(C(=O)O)CC[C@]3(C)C(=CC[C@@H]4[C@@]5(C)C[C@H](O)[C@H](O[C@@H]6OC[C@@H](O[C@@H]7O[C@H](CO)[C@@H](O)[C@H](O)[C@H]7O)[C@H](O)[C@H]6O)[C@@](C)(CO)[C@@H]5CC[C@]43C)[C@@H]2C1` [PCM-0216472] the figure was 2.3%; with `COc1cc(O)c2c(=O)c(O[C@@H]3O[C@H](CO)[C@@H](O)[C@H](O)[C@H]3O)c(-c3ccc(O[C@@H]4O[C@H](CO)[C@@H](O)[C@H](O)[C@H]4O)cc3)oc2c1` [PCM-0216473], 7.7%; with `COC(=O)[C@@]1(C)CC[C@]2(C(=O)O)CC[C@]3(C)C(=CC[C@@H]4[C@@]5(C)C[C@H](O)[C@H](O)[C@@](C)(CO)[C@@H]5CC[C@]43C)[C@@H]2C1` [PCM-0216474], -0.8%.
For `CC1=C[C@H]2Cc3[nH]c(=O)ccc3[C@]3(C1)NCCC[C@H]23` [PCM-0216475], the inhibition at 10 µM under setting [1] was -10%.
On the same count and under the same terms, in the case of `c1cc2c(c3c1CC1c4cc5c(cc4CCN1C3)OCO5)OCO2` (stereo not drawn) [PCM-0216476] it was -13.9%; in that of `COc1cc(/C=C/C=O)ccc1O` [PCM-0216477], 1.5%.
On to `CCN1C[C@]2(COC)CC[C@H](OC)[C@]34C1[C@H](C[C@H]23)[C@@]1(O)C[C@H](OC)[C@H]2C[C@@H]4[C@@H]1[C@H]2O` [PCM-0216478], for which the inhibition at 10 µM (read-out: BTK inhibition (%)) was determined as 10.8%.
Turning to `C=C1[C@@H]2CC[C@@H](C2)[C@]1(C)CC/C=C(\C)CO` [PCM-0216479], under setting [1], the inhibition at 10 µM is 0%.
Same read-out and setting: with `C=C1C[C@@]23CC[C@H]4[C@@](C)(CCC[C@@]4(C)C(=O)O)[C@@H]2CC[C@]1(O[C@@H]1O[C@H](CO)[C@@H](O)[C@H](O)[C@H]1O[C@@H]1O[C@H](CO)[C@@H](O)[C@H](O)[C@H]1O)C3` [PCM-0216480] the figure was -3.9%; with `C/C1=C\CC[C@]23O[C@H]2[C@@H](OC3=O)c2c(C)coc2C1` [PCM-0216481], -16.2%; with `O=c1cc(-c2ccc(O[C@@H]3O[C@H](CO)[C@@H](O)[C@H](O)[C@H]3O)cc2)oc2cc(O)c([C@@H]3O[C@H](CO)[C@@H](O)[C@H](O)[C@H]3O[C@@H]3OC[C@H](O)[C@H](O)[C@H]3O)c(O)c12` [PCM-0216482], -22.4%.
Same read-out and setting: with `COc1cc2c(c(O)c1OC)-c1c(cc(OC)c(OC)c1OC)C[C@@H](C)[C@@H](C)C2` [PCM-0216483] the figure was 23.9%; with `CC(/C=C/C=C(\C)C(=O)O[C@@H]1O[C@H](CO)[C@@H](O)[C@H](O)[C@H]1O)=C\C=C\C=C(C)\C=C\C=C(/C)C(=O)O[C@@H]1O[C@H](CO[C@@H]2O[C@H](CO)[C@@H](O)[C@H](O)[C@H]2O)[C@@H](O)[C@H](O)[C@H]1O` [PCM-0216484], 16.2%.
